Results published in US4575560A, “Insecticidal diaminoguanidine hydrazone compounds” (American Cyanamid Company, priority 1985, dated 1986).

Assays:
Southern Armyworm = test: Southern armyworm test, third-instar larvae on treated Sieva lima bean leaves; type: in vivo, Spodoptera eridania (Cramer); details: third-instar larvae
Method: Test formulations and procedures used for evaluation are as follows:
A. 100 mg of the test material is weighed, placed in a funnel over a 113 g narrow-mouth bottle, rinsed into the bottle with a 35 mL scoop of acetone, followed by a 35 mL scoop of water and another 35 mL scoop of acetone to yield 1000 ppm in 65% acetone. If the material is not soluble, it is broken up with a glass rod and used as a suspension.
B. This stock solution ("A") is used to make 300 ppm solutions or suspensions by pipetting 30 mL of "A" into a bottle containing 70 mL of 50% acetone to yield 300 ppm. Further dilutions in 50% acetone are made as required.
C. Tests requiring 10 ppm acetone solutions: 1 mL of "A" is pipetted into 99 mL of acetone to yield 10 ppm. Additional dilutions are made using 50% acetone as required.
Southern Armyworm--Spodoptera eridania (Cramer)
A Sieva lima bean plant with just the primary leaves expanded to 1.91 cm is dipped for three seconds with agitation in the "A" solution of 1000 ppm and set in the hood to dry. Following this, one leaf is placed in a 9 cm petri dish which has a moist filter paper in the bottom and 10 third-instar armyworm larvae about 1 cm long. This dish is covered and held at 80° F., and 50% r.h. After two days, mortality counts and estimates of the amount of feeding are made. Compounds showing partial kill and/or inhibition of feeding are held for an extra day for further observations.
All compounds showing activity as defined above are retested, using the second leaf on the bean plant, after an interval of seven days from original treatment, as an assay of residual activity.

[1] = tested on: Tobacco Budworm 3rd Instar; test: Tobacco budworm secondary test, third-instar larvae on treated cotton cotyledons; type: in vivo, Heliothis virescens (Fabricus)
Method: Tobacco Budworm--Heliothis virescens (Fabricus)
Three cotton plants with just expanded cotyledons are dipped in 1000 ppm solution and placed in the hood to dry. When dry, each cotyledon is cut in half, and 10 are each placed in a 28 g plastic medicine cup containing a 1.25 cm dental wick saturated with water, and one third-instar budworm larva is added. The cup is capped and held for three days at 80° F., 50% relative humidity, after which mortality counts are made.

Structure (SMILES) | Mortality Rating Southern Armyworm (Southern Armyworm; 100 ppm) | Mortality Rating Southern Armyworm (Southern Armyworm; 1000 ppm) | Mortality Rating Tobacco Budworm 3rd Instar ([1]; 1000 ppm) | reduced feeding (R) Tobacco Budworm 3rd Instar ([1]; 1000 ppm) | Mortality Rating Southern Armyworm (Southern Armyworm; 10 ppm) | Mortality Rating Tobacco Budworm 3rd Instar ([1]; 100 ppm) | reduced feeding (R) Tobacco Budworm 3rd Instar ([1]; 100 ppm) | Mortality Rating Tobacco Budworm 3rd Instar ([1]; 10 ppm)
N=C(NN=Cc1ccc(Br)cc1)NN=Cc1ccc(OC(F)(F)C(F)F)cc1 [Br / HCF2 CF2 O / B] | 9 (100%) | 9 (100%) | 0 (No effect) | R | – | – | – | –
N=C(NN=Cc1ccc(Br)cc1)NN=Cc1ccc(C(F)(F)F)cc1 [CF3 / Br / B] | 9 (100%) | 9 (100%) | 0 (No effect) | R | 9 (100%) | – | – | –
N=C(NN=Cc1ccc(Br)cc1)NN=Cc1ccc(C(F)(F)F)cc1 [CF3 / Br / S] | – | 9 (100%) | 0 (No effect) | R | 0 (No effect) | 0 (No effect) | R | –
CCCOC(=O)N(N=Cc1ccc(C(F)(F)F)cc1)C(=N)NN=Cc1ccc(C(F)(F)F)cc1 [CF3 / CF3 / -n-C3 H7] | 9 (100%) | 9 (100%) | 0 (No effect) | – | 4 (46-55%) | – | – | –
CCCCOC(=O)N(N=Cc1ccc(C(F)(F)F)cc1)C(=N)NN=Cc1ccc(C(F)(F)F)cc1 [CF3 / CF3 / -n-C4 H9] | 0 (No effect) | 9 (100%) | 0 (No effect) | – | – | – | – | –
N=C(NN=Cc1ccc(C(F)(F)F)cc1)N(N=Cc1ccc(C(F)(F)F)cc1)C(=O)OCCBr [CF3 / CF3 / BrCH2 CH2] | 0 (No effect) | 9 (100%) | 0 (No effect) | – | 0 (No effect) | – | – | –
CCOC(=O)N(N=Cc1ccc(C(F)(F)F)cc1)C(=N)NN=Cc1ccc(C(F)(F)F)cc1 [CF3 / CF3 / C2 H5, 3-[p-(trifluoromethyl)benzylidene]-2-{{[p-(trifluoromethyl)benzylidene]amino}amidino}carbazate] | 7 (76-85%) | 9 (100%) | – | – | 9 (100%) | – | – | –
C=CCOC(=O)N(N=Cc1ccc(C(F)(F)F)cc1)C(=N)NN=Cc1ccc(C(F)(F)F)cc1 [CF3 / CF3 / CH2CHCH2] | 9 (100%) | 9 (100%) | 0 (No effect) | R | 0 (No effect) | 0 (No effect) | – | –
COC(=O)N(N=Cc1ccc(C(F)(F)F)cc1)C(=N)NN=Cc1ccc(C(F)(F)F)cc1 [CF3 / CF3 / CH3] | 9 (100%) | 9 (100%) | 6 (66-75%) | – | 3 (36-45%) | – | – | –
CC(C)(OC(=O)N(N=Cc1ccc(C(F)(F)F)cc1)C(=N)NN=Cc1ccc(C(F)(F)F)cc1)C(Cl)(Cl)Cl [CF3 / CF3 / Cl3 CC(CH3)2] | 9 (100%) | 9 (100%) | 9 (100%) | – | 0 (No effect) | 0 (No effect) | R | 0 (No effect)
N=C(NN=Cc1ccc(C(F)(F)F)cc1)N(N=Cc1ccc(C(F)(F)F)cc1)C(=O)OCC(Cl)(Cl)Cl [CF3 / CF3 / Cl3 CCH2] | 9 (100%) | 9 (100%) | 8 (86-99%) | – | 8 (86-99%) | 0 (No effect) | R | 0 (No effect)
N=C(NN=Cc1ccc(C(F)(F)F)cc1)N(N=Cc1ccc(C(F)(F)F)cc1)C(=O)OCCCl [CF3 / CF3 / ClCH2 CH2, 3-[p-(trifluoromethyl)benzylidene]-2-{{[p-(trifluoromethyl)benzylidene]amino}amidino}carbazate ester] | 9 (100%) | 9 (100%) | 2 (26-35%) | R | 8 (86-99%) | 0 (No effect) | – | –
CCC(C)OC(=O)N(N=Cc1ccc(C(F)(F)F)cc1)C(=N)NN=Cc1ccc(C(F)(F)F)cc1 (stereo not shown) [CF3 / CF3 / drawing 54] | 9 (100%) | 9 (100%) | 6 (66-75%) | R | 6 (66-75%) | 0 (No effect) | R | –
N=C(NN=Cc1ccc(Cl)cc1)NN=Cc1ccc(C(F)(F)F)cc1 [CF3 / Cl / B] | 9 (100%) | 9 (100%) | 4 (46-55%) | R | – | 0 (No effect) | R | 0 (No effect)
N=C(NN=Cc1ccc(OC(F)(F)C(F)F)cc1)NN=Cc1ccc(C(F)(F)F)cc1 [CF3 / HCF2 CF2 O / B, 1-{[p-(1,1,2,2-tetrafluoroethoxy)benzylidene]amino}-3-{[p-(trifluoromethyl)benzylidene]amino}guanidine] | 9 (100%) | 9 (100%) | 3 (36-45%) | – | – | – | – | –
N=C(NN=Cc1ccc(OCC(F)(F)F)cc1)NN=Cc1ccc(OCC(F)(F)F)cc1 [CF3 CH2 / S] | 8 (86-99%) | 9 (100%) | 0 (No effect) | R | 6 (66-75%) | 0 (No effect) | – | –
N=C(NN=Cc1ccc(OCC(F)(F)F)cc1)NN=Cc1ccc(OCC(F)(F)F)cc1 [CF3 CH2 O / B] | 0 (No effect) | 4 (46-55%) | 0 (No effect) | R | – | 0 (No effect) | – | –
N=C(NN=Cc1ccc(OC(F)(F)F)cc1)NN=Cc1ccc(OC(F)(F)F)cc1 [CF3 O / B] | 9 (100%) | 9 (100%) | 7 (76-85%) | – | 4 (46-55%) | – | – | –
CC(C)OC(=O)N(N=Cc1ccc(OC(F)(F)F)cc1)C(=N)NN=Cc1ccc(OC(F)(F)F)cc1 [CF3 O / CF3 O / -i-C3 H7] | 9 (100%) | 9 (100%) | – | – | 7 (76-85%) | 5 (56-65%) | R | –
CCN(CC)C(=O)N(N=Cc1ccc(OC(F)(F)F)cc1)C(=N)NN=Cc1ccc(OC(F)(F)F)cc1 [CF3 O / CF3 O / C2 H5 / C2 H5] | 9 (100%) | 9 (100%) | 8 (86-99%) | – | 0 (No effect) | – | – | –
CCOC(=O)N(N=Cc1ccc(OC(F)(F)F)cc1)C(=N)NN=Cc1ccc(OC(F)(F)F)cc1 [CF3 O / CF3 O / C2 H5] | 9 (100%) | 9 (100%) | 7 (76-85%) | R | 6 (66-75%) | 2 (26-35%) | – | –
C=CCOC(=O)N(N=Cc1ccc(OC(F)(F)F)cc1)C(=N)NN=Cc1ccc(OC(F)(F)F)cc1 [CF3 O / CF3 O / CH2CHCH2] | 8 (86-99%) | 9 (100%) | 0 (No effect) | R | 6 (66-75%) | – | – | –
CCOC(=O)N(N=Cc1ccc(Cl)cc1)C(=N)NN=Cc1ccc(Cl)cc1 [Cl / Cl / C2 H5] | 9 (100%) | 8 (86-99%) | – | – | – | – | – | –
N=C(NN=Cc1ccc(Cl)cc1)NN=Cc1ccc(OC(F)(F)C(F)F)cc1 [Cl / HCF2 CF2 O / S] | – | – | 0 (No effect) | R | – | – | – | –
COC(=O)N(N=Cc1ccc(OC(F)(F)C(F)F)cc1)C(=N)NN=Cc1ccc(OC(F)(F)C(F)F)cc1 [HCF2 CF2 O / HCF2 CF2 O / CH3] | 9 (100%) | 9 (100%) | – | – | – | – | – | –
N=C(NN=Cc1ccc(SC(F)(F)C(F)F)cc1)NN=Cc1ccc(SC(F)(F)C(F)F)cc1 [HCF2 CF2 S / S] | – | – | – | – | 6 (66-75%) | – | – | –
